{"source": "patent EP3398599A1", "about": "“COMPOSITIONS AND METHODS FOR PROPHYLAXIS AND TREATMENT OF ADDICTIONS” (priority 2009, dated 2010)", "key": {"[1]": {"test_system": "msP rats", "test": "Voluntary ethanol intake, acute treatment, free choice between water and 10% alcohol 24 hours a day", "format": "in vivo", "conditions": "for ethanol intake: 2, 8 and 24 hours", "procedure": "The drug was given orally (OS) via gavage procedure in a volume of 1.0 ml/kg. Yohimbine was dissolved in distilled water and was administered intraperitoneally (IP) in a volume of 1.0 ml/kg. […] These drugs were given orally (OS) via gavage procedure in a volume of 1.0 ml/kg. Yohimbina was dissolved in distilled water and was administered intraperitoneally (IP) in a volume of 1.0 ml/kg. GW9662 was prepared in 5% DMSO and 5% TWIN 80 and was given either IP (1 ml/kg) or intacerebroventricularly (ICV, 1 µl/rat). Antalarmin was prepared in 10 % TWIN 80 and was given IP (1 ml/kg). Ondansetron was prepared in acqueous solution and was given IP (1 ml/kg).\nAt the beginning of the experiments, msP rats were allowed free choice between water and 10% (v/v) alcohol 24 h/day for at least 15 days. The fluids were offered in graduated drinking tubes equipped with metallic drinking spouts. The position (to the right or left) of alcohol and water drinking tubes was changed daily to avoid the development of side preference. […] Alcohol, water and food intakes were measured.\nMsP rats were first trained to drink 10% (w/v) alcohol for 24 hours a day (free choice between water and ethanol). […] Before starting the treatment, rats were trained to gavage administration procedures for three days, during which they received vehicle (distilled water). […] Drinking experiments started at the beginning of the dark cycle. Alcohol, water and food intakes were monitored at 2, 8 and 24 hours after ethanol was made available.\nBefore starting the treatment, rats were trained to gavage and IP administration procedures for three days. Experiment was conducted in a between subject design (n = 22). […] Drinking experiments started at the beginning of the dark cycle. Alcohol, water and food intakes were monitored at 2, 8 and 24 hours after ethanol was made available.\nThe experiment was conduced using a within subject counterbalanced Latine square design, where each animal received all drug doses.\nThe drinking experiments were conducted at the beginning of the dark cycle, and alcohol, water and food intakes were monitored at 2, 8 and 24 hours after ethanol was made available.\n(§1) MsP rats were first trained to drink 10% (w/v) alcohol for 24 hours a day (free choice between water and ethanol). […] Rats treated with drug vehicles served as a control. Before starting the treatment, rats were trained to gavage administration for three days, during which they received drugs vehicle (distilled water). […] Drinking experiments started at the beginning of the dark cycle. Alcohol, water, and food intakes were monitored at 2, 8 and 24 hours after ethanol was made available.\nas §1, with “water” for “water,”\nas §1, with “water” for “water,”\nMsP rats were first trained to drink 10% (w/v) alcohol for 24 hours a day (free choice between water and ethanol). […] Rats treated with drug vehicles served as a control. Before starting the treatment, rats were trained to gavage administration for three days, during which they received drugs vehicle (distilled water)."}, "[2]": {"test_system": "heavy tobacco smokers", "test": "Pilot study in heavy tobacco smokers (pioglitazone 15-30 mg/daily, varenicline 0.5 to 2.0 mg/day, bupropione 150 mg/kg)", "format": "in vivo, human", "conditions": "for STAI score (anxiety): over 10 treatment weeks", "from_the_text": "[…] Patients were instructed to record in a personal logbook the number of cigarettes per day and the time of the day smoking occurred. At the end of the study, the logbooks were returned to the clinical personnel who analyzed the data. Every other week, participants were interviewed and subjected to the Spielberger State-Trait Anxiety Inventory (STAI), the Montgomery Asberg Depression Rating Scale (M.A.D.R.S 10 Item), and to a Visual Analogic Scale (VAS) to measure nicotine craving. During the first month of treatment, every two weeks, ACTH and cortisol levels were also monitored to evaluate HPA activation before and during treatment."}, "[3]": {"test_system": "human patients", "test": "Observational study of alcohol abuse in human patients (pioglitazone 30 mg/day or naltrexone 50 mg/day + psychotherapy)", "format": "in vivo", "conditions": "T=0 (beginning of the treatment)", "from_the_text": "Patients were instructed to record in a personal logbook the number of drinks per day and the time of the day drinks occurred. At the end of the study, the logbooks were returned to the clinical personnel who analyzed the data.\nIn addition, biochemical parameters to ascertain alcohol detoxification and to measure recovery of physiological functions (i.e., hepatic function) were monitored monthly. Hematological parameters measured included: mean corpuscular volume (MCV); gamma-GT; aspartate aminotransferase (AST); alanine aminotransferase (ALT); and carbohydrate-deficient transferring (CDT). MCV and CDT are biomarkers for ethanol consumption, and GGT, ALT and AST are biomarkers for hepatic functionality.\nData were analyzed by analysis of variance followed by Newman-Keuls post hoc tests when appropriate."}}, "data": [{"smiles": "O=C(Nc1ccccc1)c1cc([N+](=O)[O-])ccc1Cl", "note": "[GW9662]", "values": [{"measurement": "ethanol intake per se", "setting": "[1]; GW9662 5 µg/rat ICV alone", "value": "did not significantly affect ethanol intake per se"}, {"measurement": "pioglitazone-induced reduction of ethanol intake", "setting": "[1]; GW9662 5 µg/rat ICV with pioglitazone 30 mg/kg OS", "value": "completely prevented the effect of pioglitazone"}, {"measurement": "pioglitazone-induced reduction of ethanol intake", "setting": "[1]; GW9662 IP (1.0 and 5.0 mg/kg) with pioglitazone 30 mg/kg OS", "value": "blocked the effect of pioglitazone in a dose related manner"}, {"measurement": "ethanol drinking", "setting": "[1]; GW9662 alone (1.0 and 5.0 mg/kg IP)", "value": "did not modify ethanol drinking"}]}, {"smiles": "CC(NC(C)(C)C)C(=O)c1cccc(Cl)c1", "note": "(stereo not shown) [bupropione]", "values": [{"measurement": "STAI score (anxiety)", "setting": "[2]", "value": "not with bupropione"}]}, {"smiles": "CNCCC(Oc1ccc(C(F)(F)F)cc1)c1ccccc1", "note": "(stereo not shown) [fluoxetine]", "values": [{"measurement": "ethanol intake in msP rats in a pilot study", "setting": "[1]; fluoxetine 3.0 mg/kg OS", "value": "did not reduce ethanol intake"}, {"measurement": "ethanol intake", "setting": "[1]; fluoxetine alone 3.0 mg/kg OS, given twice", "value": "did not significantly modify ethanol intake"}]}, {"smiles": "NCC1(CC(=O)O)CCCCC1", "note": "[gabapentin]", "values": [{"measurement": "ethanol intake in msP rats in a pilot study", "setting": "[1]; gabapentin 60.0 mg/kg OS", "value": "did not reduce ethanol intake"}, {"measurement": "ethanol intake", "setting": "[1]; gabapentin alone 60.0 mg/kg OS", "value": "did not significantly modify ethanol intake"}]}, {"smiles": "CC[C@@H](C(N)=O)N1CCCC1=O", "note": "[levetiracetam]", "values": [{"measurement": "ethanol intake in msP rats in a pilot study", "setting": "[1]; levetiracetam 100.0 mg/kg OS", "value": "did not reduce ethanol intake"}, {"measurement": "ethanol intake", "setting": "[1]; levetiracetam alone 100.0 mg/kg OS, given twice", "value": "did not significantly modify ethanol intake"}]}, {"smiles": "CN1CCN2c3ncccc3Cc3ccccc3C2C1", "note": "(stereo not shown) [mirtazapine]", "values": [{"measurement": "ethanol intake in msP rats in a pilot study", "setting": "[1]; mirtazapine 5.0 mg/kg OS", "value": "did not reduce ethanol intake"}, {"measurement": "ethanol intake", "setting": "[1]; mirtazapine alone 5.0 mg/kg OS, given twice", "value": "did not significantly modify ethanol intake"}]}, {"smiles": "Cc1nccn1CC1CCc2c(c3ccccc3n2C)C1=O", "note": "(stereo not shown) [ondansetron]", "values": [{"measurement": "ethanol intake in msP rats in a pilot study", "setting": "[1]; ondansetron 1.0 mg/kg IP", "value": "did not reduce ethanol intake"}, {"measurement": "ethanol intake", "setting": "[1]; ondansetron alone 1.0 mg/kg IP, given twice", "value": "did not significantly modify ethanol intake"}]}, {"smiles": "CCc1ccc(CCOc2ccc(CC3SC(=O)NC3=O)cc2)nc1", "note": "(stereo not shown) [pioglitazone]", "values": [{"measurement": "Anxiety Score obtained using The STAY-Y1 scale (mean score values)", "setting": "[3]", "value": 59}]}, {"smiles": "CC1(C)O[C@@H]2[C@@H](CO[C@@]3(COS(N)(=O)=O)OC(C)(C)O[C@@H]23)O1", "note": "[topiramate]", "values": [{"measurement": "ethanol intake in msP rats in a pilot study", "setting": "[1]; topiramate 30.0 mg/kg OS", "value": "did not reduce ethanol intake"}, {"measurement": "ethanol intake", "setting": "[1]; topiramate alone 30.0 mg/kg OS, given twice", "value": "did not significantly modify ethanol intake"}, {"measurement": "ethanol intake at 2 hours", "setting": "[1]; topiramate alone 30.0 mg/kg OS, p<0.05", "value": "significant reduction of ethanol intake at 2 hours"}]}, {"smiles": "c1cnc2cc3c(cc2n1)[C@@H]1CNC[C@H]3C1", "note": "[varenicline]", "values": [{"measurement": "Percent inhibition of smoking", "setting": "[2]; Patient 1, T=0 (baseline expressed as 100%)", "value": 100, "unit": "%"}, {"measurement": "Percent inhibition of smoking", "setting": "[2]; Patient 1, T=2 weeks of treatment", "value": 34, "unit": "%"}, {"measurement": "Percent inhibition of smoking", "setting": "[2]; Patient 1, T=4 weeks of treatment", "value": 46, "unit": "%"}, {"measurement": "Percent inhibition of smoking", "setting": "[2]; Patient 1, T=6 weeks of treatment", "value": 61, "unit": "%"}, {"measurement": "Percent inhibition of smoking", "setting": "[2]; Patient 1, T=8 weeks of treatment", "value": 80, "unit": "%"}, {"measurement": "Percent inhibition of smoking", "setting": "[2]; Patient 1, T=10 weeks of treatment", "value": 93, "unit": "%"}, {"measurement": "Percent inhibition of smoking", "setting": "[2]; Patient 2, T=0 (baseline expressed as 100%)", "value": 100, "unit": "%"}, {"measurement": "Percent inhibition of smoking", "setting": "[2]; Patient 2, T=2 weeks of treatment", "value": 22, "unit": "%"}, {"measurement": "Percent inhibition of smoking", "setting": "[2]; Patient 2, T=4 weeks of treatment", "value": 47, "unit": "%"}, {"measurement": "Percent inhibition of smoking", "setting": "[2]; Patient 2, T=6 weeks of treatment", "value": 63, "unit": "%"}, {"measurement": "Percent inhibition of smoking", "setting": "[2]; Patient 2, T=8 weeks of treatment", "value": 87, "unit": "%"}, {"measurement": "Percent inhibition of smoking", "setting": "[2]; Patient 2, T=10 weeks of treatment", "value": 100, "unit": "%"}, {"measurement": "Percent inhibition of smoking", "setting": "[2]; Patient 3, T=0 (baseline expressed as 100%)", "value": 100, "unit": "%"}, {"measurement": "Percent inhibition of smoking", "setting": "[2]; Patient 3, T=2 weeks of treatment", "value": 38, "unit": "%"}, {"measurement": "Percent inhibition of smoking", "setting": "[2]; Patient 3, T=4 weeks of treatment", "value": 54, "unit": "%"}, {"measurement": "Percent inhibition of smoking", "setting": "[2]; Patient 3, T=6 weeks of treatment", "value": 62, "unit": "%"}, {"measurement": "Percent inhibition of smoking", "setting": "[2]; Patient 3, T=8 weeks of treatment", "value": 79, "unit": "%"}, {"measurement": "Percent inhibition of smoking", "setting": "[2]; Patient 3, T=10 weeks of treatment", "value": 94, "unit": "%"}, {"measurement": "STAI score (anxiety)", "setting": "[2]", "value": "significantly reduced"}, {"measurement": "subjects reaching complete abstinence", "setting": "[2]; pioglitazone 4 patients, varenicline 3 patients", "value": "one of them"}, {"measurement": "percent of weekly smoked cigarettes: pioglitazone vs varenicline", "setting": "[2]; post hoc tests", "value": "no significant differences"}]}]}
